From ChEMBL document CHEMBL1201862, “PubChem BioAssay data set” (2004)
Activity calls are given as the source filed them.

Experiments:
[1] = off-target signal loss in HeLa-CEM21 co-culture – HeLa F-luc CTL cells, cherry-picked, counter-screen for HIV-1 Env fusion inhibitor project, dose response (AID 652040); type: functional, cell-based;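 also: potency for signal decrease marking cytotoxic or nonspecific inhibition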
[2] = inhibitors of HIV Env-driven cell fusion, dose response, cherry-pick (AID 652057); type: functional, cell-based
[3] = molecular target: Neuropeptide Y receptor type 1 (Homo sapiens, UniProt P25929); type: functional;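 also: HEK293 cells with a CNG channel challenged with NPY then isoproterenol; potency as antagonist that reverses NPY suppression of cAMP signal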
[4] = molecular target: Neuropeptide Y receptor type 2 (Homo sapiens, UniProt P49146); type: functional, cell-based;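 also: HEK293 cells expressing the receptor and a CNG channel; stimulus was NPY near EC95 followed by isoproterenol to raise cAMP; antagonist potency measured as restoring cAMP signal that NPY suppresses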
[5] = CEM21 cell cytotoxicity, dose response, cytotoxicity control, plate reader, dry powder (AID 687026); type: functional, cell-based
[6] = CEM21 lymphoblast cell cytotoxicity, dose response, cytotoxicity control for viral fusion inhibitor project, CellTiter-Glo luminescence, cherry-picked (AID 652042); type: functional, cell-based;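 also: potency for signal decrease meaning cytotoxicity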
[7] = Luminescence Cell-Based Dose Response HTS to Identify Inhibitors of 5'UTR Stem-Loop Driven Prion Protein mRNA Translation in H4 Neuroglioblastoma Cells. [Related pubchem assays: 1827 (Project Summary), 1813 (Primary HTS)]; type: functional
[8] = Luminescence-based counterscreen assay for KLF5 inhibitors: dose response cell-based high throughput screening assay to identify cytotoxic compounds using the IEC-6 intestinal epithelial cell line. [Related pubchem assays: 1700 (Primary screen.), 1834 (Confirmation screen.), 1858 (Summary AID.), 1905 (Counterscreen.)]; type: functional
[9] = inhibitors of SNCA 5'UTR-driven reporter translation, confirmation, H4 neuroglioma cells, luminescence (AID 1988); type: functional, cell-based
HT-1080 = assay: cytotoxicity in HT1080 fibrosarcoma cells, cell-based, fluorescence readout (AID 620); type: functional; details: Homo sapiens
[10] = molecular target: T1, Luciferin 4-monooxygenase (Photinus pyralis, UniProt P08659); assay: firefly luciferase enzyme inhibitors, dose response, biochemical, luminescence (AID 1891)
[11] = Luminescence Cell-Based Dose Confirmation HTS to Identify Inhibitors of Platelet Dense Granule Release. [Related pubchem assays: 1663 (Primary HTS), 1678 (Summary of Project)]; type: functional
[12] = molecular target: T1, Luciferin 4-monooxygenase; assay: Counter Screen for Luciferase-based Assay Positives. [Related pubchem assays: 620, 618, 411 ]
Estrogen receptor = molecular target: T2, Estrogen receptor (Homo sapiens, UniProt P03372); assay: ERα–SRC-3 coactivator interaction inhibitors, confirmation, orthogonal assay, biochemical, ELISA, streptavidin-HRP readout (AID 1079)
T2 sequence (P03372 whole entry): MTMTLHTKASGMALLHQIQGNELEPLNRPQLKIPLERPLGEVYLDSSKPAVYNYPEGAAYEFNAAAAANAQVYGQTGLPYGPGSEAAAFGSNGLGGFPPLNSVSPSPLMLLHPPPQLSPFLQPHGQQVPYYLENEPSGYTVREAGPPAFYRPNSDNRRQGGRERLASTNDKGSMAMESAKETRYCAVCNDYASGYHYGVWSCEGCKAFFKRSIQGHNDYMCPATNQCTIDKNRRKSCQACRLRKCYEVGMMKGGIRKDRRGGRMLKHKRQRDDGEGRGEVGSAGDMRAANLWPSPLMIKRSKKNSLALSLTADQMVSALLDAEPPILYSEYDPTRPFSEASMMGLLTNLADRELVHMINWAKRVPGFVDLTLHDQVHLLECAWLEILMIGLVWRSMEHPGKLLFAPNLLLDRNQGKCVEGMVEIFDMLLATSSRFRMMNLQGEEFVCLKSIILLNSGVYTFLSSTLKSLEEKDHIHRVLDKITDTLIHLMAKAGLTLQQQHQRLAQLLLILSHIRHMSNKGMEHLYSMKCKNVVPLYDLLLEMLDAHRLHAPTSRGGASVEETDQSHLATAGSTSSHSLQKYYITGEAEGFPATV

Genome polyprotein = Genome polyprotein (dengue virus type 2, UniProt P29990); assay: Dengue-2 NS5 methyltransferase inhibitors, primary screen, biochemical, confirmation dose response (AID 588689); type: functional
[13] = HIV-1 Env-mediated cell fusion inhibitors, dose response, CCR5-tropic Env (AID 2279); type: functional
Vero = Vero cell cytotoxicity, cytotoxicity control for flavivirus capping enzyme inhibitors (AID 588742); type: functional; details: Chlorocebus sabaeus
Hexokinase HKDC1 = molecular target: T3, Hexokinase HKDC1 (Homo sapiens, UniProt Q2TB90); assay: HKDC1 hexokinase inhibitors, dose response, biochemical, W721R variant (AID 504729); type: functional
T3 sequence (Q2TB90 whole entry): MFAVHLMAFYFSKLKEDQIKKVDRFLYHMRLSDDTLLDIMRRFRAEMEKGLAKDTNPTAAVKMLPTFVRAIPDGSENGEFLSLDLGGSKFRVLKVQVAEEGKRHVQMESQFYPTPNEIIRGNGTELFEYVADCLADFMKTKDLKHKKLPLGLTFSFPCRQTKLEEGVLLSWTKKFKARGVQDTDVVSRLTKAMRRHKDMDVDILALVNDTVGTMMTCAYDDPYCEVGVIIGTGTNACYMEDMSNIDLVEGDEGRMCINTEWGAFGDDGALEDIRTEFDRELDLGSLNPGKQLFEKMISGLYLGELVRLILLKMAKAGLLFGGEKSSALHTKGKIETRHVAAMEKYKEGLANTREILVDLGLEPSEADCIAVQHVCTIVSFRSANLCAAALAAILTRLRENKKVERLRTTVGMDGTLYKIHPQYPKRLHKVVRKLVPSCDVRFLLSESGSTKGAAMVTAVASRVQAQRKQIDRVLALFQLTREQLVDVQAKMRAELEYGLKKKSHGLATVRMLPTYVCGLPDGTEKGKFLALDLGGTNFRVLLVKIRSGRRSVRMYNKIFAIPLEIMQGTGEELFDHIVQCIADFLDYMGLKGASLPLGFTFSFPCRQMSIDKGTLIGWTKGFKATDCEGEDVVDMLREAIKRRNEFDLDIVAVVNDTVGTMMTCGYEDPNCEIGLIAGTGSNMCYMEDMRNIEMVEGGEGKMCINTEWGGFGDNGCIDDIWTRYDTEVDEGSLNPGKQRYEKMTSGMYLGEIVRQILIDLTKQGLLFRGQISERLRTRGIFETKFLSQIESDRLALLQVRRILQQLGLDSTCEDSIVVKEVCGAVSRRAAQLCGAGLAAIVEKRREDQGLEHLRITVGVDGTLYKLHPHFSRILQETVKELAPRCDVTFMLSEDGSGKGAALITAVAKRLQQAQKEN

Bcl-2-like protein 1 = Bcl-2-like protein 1 (Homo sapiens, UniProt Q07817); assay: BCL-XL inhibitors, dose response, selectivity assay for MCL1 inhibitor project, biochemical, fluorescence polarization, 1536-well (AID 2218)
[14] = molecular target: T4, Voltage-gated N-type calcium channel alpha-1B subunit/Amyloid beta A4 precursor protein-binding family A member 1 (Homo sapiens, UniProt Q00975+Q02410); type: protein assay
[15] = molecular target: T5, Zinc finger protein mex-5 (Caenorhabditis elegans, UniProt Q9XUB2); assay: MEX-5/TCR-2 RNA interaction inhibitors, dose response, biochemical, C. elegans, fluorescence polarization (AID 1960)
T5 sequence (Q9XUB2 whole entry): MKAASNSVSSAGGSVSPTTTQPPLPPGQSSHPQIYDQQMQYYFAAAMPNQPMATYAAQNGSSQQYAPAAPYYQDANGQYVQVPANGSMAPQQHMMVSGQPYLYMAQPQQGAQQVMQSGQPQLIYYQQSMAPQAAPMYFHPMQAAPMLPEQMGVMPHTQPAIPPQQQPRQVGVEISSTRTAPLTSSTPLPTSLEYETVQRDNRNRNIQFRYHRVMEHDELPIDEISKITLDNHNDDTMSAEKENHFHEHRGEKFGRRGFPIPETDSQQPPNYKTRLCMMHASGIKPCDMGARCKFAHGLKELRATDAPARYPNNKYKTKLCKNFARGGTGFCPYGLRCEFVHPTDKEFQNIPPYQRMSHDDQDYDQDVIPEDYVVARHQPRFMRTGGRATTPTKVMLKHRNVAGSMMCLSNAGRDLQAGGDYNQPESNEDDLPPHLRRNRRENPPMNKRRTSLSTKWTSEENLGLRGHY

[16] = molecular target: Induced myeloid leukemia cell differentiation protein Mcl-1 (Homo sapiens, UniProt Q07820); assay: MCL1-BIM BH3 interaction inhibitors, dose response, biochemical, fluorescence polarization, BIM-BH3 peptide, 1536-well (AID 2217)
[17] = molecular target: DNA (cytosine-5)-methyltransferase 1 (Homo sapiens, UniProt P26358); assay: DNMT1 methyltransferase inhibitors, confirmation, biochemical, fluorescent molecular beacon (AID 602386); type: functional
[18] = molecular target: T4, Voltage-gated N-type calcium channel alpha-1B subunit/Amyloid beta A4 precursor protein-binding family A member 1; type: protein assay; remark: listed apart in the source
[19] = molecular target: T6, RNA-binding protein pos-1 (Caenorhabditis elegans, UniProt G5EF15); assay: inhibitors of POS-1/mex-3 RNA binding, dose response, biochemical, fluorescence polarization (AID 1964);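 also: purified POS-1 fused to maltose binding protein made in E. coli; potency of compounds blocking POS-1 binding to fluorescent RNA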
T6 sequence (G5EF15 whole entry): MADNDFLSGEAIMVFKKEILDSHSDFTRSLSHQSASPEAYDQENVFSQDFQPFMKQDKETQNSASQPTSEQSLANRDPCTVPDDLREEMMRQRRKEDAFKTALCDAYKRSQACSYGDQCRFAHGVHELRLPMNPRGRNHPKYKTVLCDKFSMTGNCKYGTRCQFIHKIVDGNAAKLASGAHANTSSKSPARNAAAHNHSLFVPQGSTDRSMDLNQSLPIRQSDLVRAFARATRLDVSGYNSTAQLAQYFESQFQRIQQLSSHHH

INS1 = assay: beta cell apoptosis inhibitors, cytokine rescue, dose response, luminescence, retest (AID 449756); type: functional, cell-based; details: Rattus norvegicus;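 also: cell death triggered by IL-1 beta plus TNF-alpha plus IFN-gamma mixture; protective hits raise ATP signal compared with cytokine alone wells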
[20] = MC4R antagonists, dose response, counter-screen for LGR2 antagonist project, cell-based, plate reader, cherry pick (AID 743444); type: functional;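 also: transfected HEK 293 cells stimulated with alpha-MSH peptide; potency of inhibitors of the alpha-MSH evoked signal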
[21] = HepG2 cell cytotoxicity, dose response, cytotoxicity control, plate reader, cherry-pick, antagonist series (AID 743416); type: functional, cell-based
[22] = molecular target: Neurotensin receptor type 1 (Homo sapiens, UniProt P30989); type: functional;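 also: Image-based confirmatory dose-response assay measuring agonist activity at NTR1; NTR1-expressing U2OS osteosarcoma cells imaged for beta-arrestin GFP spot formation; agonist potency where compounds increase beta-arrestin recruitment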
[23] = cytotoxicity in HEK-293T cells, dose response, cytotoxicity control for TCR NF-kB inhibitor project, luminescence, T-cell screen hits (AID 489026); type: functional, cell-based;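 also: cells exposed to compound about 14 hours before the viability readout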
[24] = Luminescence Cell-Based Dose Response HTS to Identify Activators of Luciferase Translation or Activity in H4 […] Cells. [Related pubchem assays: 1829 (Project Summary), 1814 (Primary HTS)]; type: functional
[25] = molecular target: Sphingosine 1-phosphate receptor 3 (Homo sapiens, UniProt Q99500); assay: Dose response cell-based high throughput screening assay for antagonists of the Sphingosine 1-Phosphate Receptor 3 (S1P3). [Related pubchem assays: 1429, 485 ]; type: functional
[26] = Luminescence Cell-Based Dose Confirmation HTS to Identify Activators of 5'UTR Stem-Loop Driven Alpha-Synuclein mRNA Translation in H4 Neuroglioblastoma Cells. [Related pubchem assays: 1829 (Project Summary), 1814 (Primary HTS)]; type: functional
[27] = LGR2 antagonists, dose response, cell-based, HEK293, CRE-luciferase reporter, cherry pick, set 2 (AID 743343); type: functional;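 also: transfected cells were stimulated with diluted bursicon conditioned medium after compound addition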
[28] = molecular target: 5-hydroxytryptamine receptor 1E (Homo sapiens, UniProt P28566); assay: Counterscreen assay for S1P3 antagonists: Dose response cell-based high throughput screening assay to identify antagonists of the 5-Hydroxytryptamine Receptor Subtype 1E (5HT1E). [Related pubchem assays: 1429, 485 ]; type: functional
H4 = assay: Luminescence Cell-Based Dose Response HTS to Identify Activators of 5'UTR Stem-Loop Driven Prion Protein mRNA Translation in H4 Neuroglioblastoma Cells. [Related pubchem assays: 1829 (Project Summary), 1814 (Primary HTS)]; type: functional; details: Homo sapiens
Bcl-2-like protein 10 = molecular target: T7, Bcl-2-like protein 10 (Homo sapiens, UniProt Q9HD36); assay: Biochemical TR3 FP assay of Bcl-B inhibitor potency, EC50 (AID 1243); type: functional
T7 sequence (Q9HD36 whole entry): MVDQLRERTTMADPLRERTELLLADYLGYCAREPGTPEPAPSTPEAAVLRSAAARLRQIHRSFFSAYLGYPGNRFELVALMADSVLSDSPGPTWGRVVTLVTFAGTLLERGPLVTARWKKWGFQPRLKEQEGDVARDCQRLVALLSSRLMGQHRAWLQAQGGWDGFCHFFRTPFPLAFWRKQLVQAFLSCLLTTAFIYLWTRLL

T4 sequence (Q00975 whole entry): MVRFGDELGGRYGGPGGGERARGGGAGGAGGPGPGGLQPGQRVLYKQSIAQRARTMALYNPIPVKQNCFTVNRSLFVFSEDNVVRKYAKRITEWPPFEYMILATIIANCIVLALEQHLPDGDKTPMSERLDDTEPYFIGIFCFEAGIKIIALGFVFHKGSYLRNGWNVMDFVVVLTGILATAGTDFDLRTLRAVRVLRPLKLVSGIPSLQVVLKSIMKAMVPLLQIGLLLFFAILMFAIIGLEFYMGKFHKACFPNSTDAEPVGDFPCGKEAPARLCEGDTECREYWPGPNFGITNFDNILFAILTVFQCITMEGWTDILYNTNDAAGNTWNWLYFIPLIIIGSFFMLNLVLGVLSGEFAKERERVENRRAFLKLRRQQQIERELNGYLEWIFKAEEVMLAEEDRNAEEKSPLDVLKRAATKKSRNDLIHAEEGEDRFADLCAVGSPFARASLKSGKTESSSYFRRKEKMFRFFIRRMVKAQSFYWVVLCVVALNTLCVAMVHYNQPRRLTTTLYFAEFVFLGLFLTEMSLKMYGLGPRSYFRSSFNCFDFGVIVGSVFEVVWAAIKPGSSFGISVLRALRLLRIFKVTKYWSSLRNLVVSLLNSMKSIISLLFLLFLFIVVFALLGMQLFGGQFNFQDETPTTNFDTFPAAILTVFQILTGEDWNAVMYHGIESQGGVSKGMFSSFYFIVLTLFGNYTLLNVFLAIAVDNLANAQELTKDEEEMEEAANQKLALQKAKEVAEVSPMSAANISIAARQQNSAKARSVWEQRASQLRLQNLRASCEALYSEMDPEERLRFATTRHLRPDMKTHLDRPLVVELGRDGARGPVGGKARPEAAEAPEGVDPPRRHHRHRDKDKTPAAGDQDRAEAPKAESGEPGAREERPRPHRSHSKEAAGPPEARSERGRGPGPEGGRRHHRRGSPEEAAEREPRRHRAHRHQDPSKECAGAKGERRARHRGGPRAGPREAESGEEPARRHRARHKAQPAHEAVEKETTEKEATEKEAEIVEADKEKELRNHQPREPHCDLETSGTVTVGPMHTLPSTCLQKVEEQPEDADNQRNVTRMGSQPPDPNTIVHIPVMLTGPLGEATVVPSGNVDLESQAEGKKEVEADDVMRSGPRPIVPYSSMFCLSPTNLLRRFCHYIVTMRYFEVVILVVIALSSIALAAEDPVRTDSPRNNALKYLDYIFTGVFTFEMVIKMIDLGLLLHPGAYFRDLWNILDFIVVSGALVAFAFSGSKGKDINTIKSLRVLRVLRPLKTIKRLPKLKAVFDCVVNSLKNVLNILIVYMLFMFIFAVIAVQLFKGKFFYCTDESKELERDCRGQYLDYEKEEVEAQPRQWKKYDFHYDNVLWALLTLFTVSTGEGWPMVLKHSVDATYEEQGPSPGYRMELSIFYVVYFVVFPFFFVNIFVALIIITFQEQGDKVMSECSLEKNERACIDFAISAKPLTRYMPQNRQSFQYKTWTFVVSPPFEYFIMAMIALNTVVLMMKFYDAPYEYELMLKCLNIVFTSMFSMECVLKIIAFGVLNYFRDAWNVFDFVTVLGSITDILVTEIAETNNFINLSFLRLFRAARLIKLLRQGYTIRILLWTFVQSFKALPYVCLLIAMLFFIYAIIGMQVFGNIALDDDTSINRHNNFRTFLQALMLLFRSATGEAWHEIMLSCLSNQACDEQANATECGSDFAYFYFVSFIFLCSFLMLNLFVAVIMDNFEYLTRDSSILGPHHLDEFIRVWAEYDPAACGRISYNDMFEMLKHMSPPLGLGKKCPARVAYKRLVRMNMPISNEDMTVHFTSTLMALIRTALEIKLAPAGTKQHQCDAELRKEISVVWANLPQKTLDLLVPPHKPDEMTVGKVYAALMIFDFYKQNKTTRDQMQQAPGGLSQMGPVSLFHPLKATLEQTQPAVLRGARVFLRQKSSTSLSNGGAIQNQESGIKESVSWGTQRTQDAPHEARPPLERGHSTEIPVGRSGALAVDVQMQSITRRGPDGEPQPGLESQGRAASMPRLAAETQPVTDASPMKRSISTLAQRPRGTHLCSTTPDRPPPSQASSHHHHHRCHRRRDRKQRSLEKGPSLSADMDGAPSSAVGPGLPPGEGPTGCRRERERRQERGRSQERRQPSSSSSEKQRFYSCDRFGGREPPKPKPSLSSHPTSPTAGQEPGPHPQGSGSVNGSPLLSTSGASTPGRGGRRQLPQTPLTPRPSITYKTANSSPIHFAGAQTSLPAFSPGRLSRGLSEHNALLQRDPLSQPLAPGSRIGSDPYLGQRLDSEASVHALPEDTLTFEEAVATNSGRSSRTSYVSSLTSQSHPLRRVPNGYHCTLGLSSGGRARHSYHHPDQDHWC
T4 sequence (Q02410 whole entry): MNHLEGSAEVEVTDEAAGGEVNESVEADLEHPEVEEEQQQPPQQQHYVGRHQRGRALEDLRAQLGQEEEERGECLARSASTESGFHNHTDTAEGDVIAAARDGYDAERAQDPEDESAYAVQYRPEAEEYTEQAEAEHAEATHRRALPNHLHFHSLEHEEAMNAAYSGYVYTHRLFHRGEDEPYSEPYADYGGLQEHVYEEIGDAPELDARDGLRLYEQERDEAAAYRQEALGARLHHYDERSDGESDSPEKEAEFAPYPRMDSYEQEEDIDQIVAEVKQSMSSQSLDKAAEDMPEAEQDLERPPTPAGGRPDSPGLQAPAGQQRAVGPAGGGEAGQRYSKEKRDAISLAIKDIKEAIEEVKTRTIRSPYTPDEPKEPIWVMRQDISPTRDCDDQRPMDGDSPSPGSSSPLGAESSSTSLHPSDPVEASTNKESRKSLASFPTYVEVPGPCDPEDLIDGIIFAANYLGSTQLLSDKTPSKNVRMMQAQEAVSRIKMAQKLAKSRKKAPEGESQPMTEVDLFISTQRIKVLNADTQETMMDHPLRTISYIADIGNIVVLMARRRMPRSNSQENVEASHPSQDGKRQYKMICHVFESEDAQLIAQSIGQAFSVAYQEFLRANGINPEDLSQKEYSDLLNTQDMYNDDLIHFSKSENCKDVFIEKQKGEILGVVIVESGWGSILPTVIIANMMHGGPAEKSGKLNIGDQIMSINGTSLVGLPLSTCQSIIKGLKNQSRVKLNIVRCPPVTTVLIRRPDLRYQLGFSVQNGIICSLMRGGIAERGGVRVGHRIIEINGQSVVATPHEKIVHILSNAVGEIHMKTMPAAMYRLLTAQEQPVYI
T1 sequence (P08659 whole entry): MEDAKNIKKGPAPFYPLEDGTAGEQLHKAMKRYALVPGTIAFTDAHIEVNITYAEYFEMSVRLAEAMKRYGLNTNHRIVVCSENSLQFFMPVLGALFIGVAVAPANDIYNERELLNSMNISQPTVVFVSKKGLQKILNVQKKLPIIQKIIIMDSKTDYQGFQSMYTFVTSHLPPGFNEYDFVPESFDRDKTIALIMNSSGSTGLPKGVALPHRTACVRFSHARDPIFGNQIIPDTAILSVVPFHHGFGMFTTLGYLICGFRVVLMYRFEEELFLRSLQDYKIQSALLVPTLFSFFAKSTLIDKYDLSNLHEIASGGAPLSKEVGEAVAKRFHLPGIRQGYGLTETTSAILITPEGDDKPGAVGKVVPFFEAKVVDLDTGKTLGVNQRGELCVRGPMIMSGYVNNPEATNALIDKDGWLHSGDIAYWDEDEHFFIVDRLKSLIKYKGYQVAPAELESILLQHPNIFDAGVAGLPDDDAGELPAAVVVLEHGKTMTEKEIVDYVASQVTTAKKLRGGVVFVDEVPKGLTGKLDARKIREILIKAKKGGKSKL
Neurotensin receptor type 1, sequence (P30989 whole entry): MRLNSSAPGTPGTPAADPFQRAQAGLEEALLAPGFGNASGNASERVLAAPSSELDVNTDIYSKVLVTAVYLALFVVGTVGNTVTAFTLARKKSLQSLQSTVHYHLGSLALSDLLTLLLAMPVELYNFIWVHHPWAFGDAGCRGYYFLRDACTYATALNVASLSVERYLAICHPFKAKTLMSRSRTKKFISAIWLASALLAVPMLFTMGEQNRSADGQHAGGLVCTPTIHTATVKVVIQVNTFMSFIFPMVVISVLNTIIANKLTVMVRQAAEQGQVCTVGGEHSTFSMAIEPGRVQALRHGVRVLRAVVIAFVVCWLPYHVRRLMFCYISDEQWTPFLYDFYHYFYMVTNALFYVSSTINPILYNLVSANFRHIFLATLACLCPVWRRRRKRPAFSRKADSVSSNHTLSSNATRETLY
Genome polyprotein, sequence (P29990 2492-3391 limits assumed): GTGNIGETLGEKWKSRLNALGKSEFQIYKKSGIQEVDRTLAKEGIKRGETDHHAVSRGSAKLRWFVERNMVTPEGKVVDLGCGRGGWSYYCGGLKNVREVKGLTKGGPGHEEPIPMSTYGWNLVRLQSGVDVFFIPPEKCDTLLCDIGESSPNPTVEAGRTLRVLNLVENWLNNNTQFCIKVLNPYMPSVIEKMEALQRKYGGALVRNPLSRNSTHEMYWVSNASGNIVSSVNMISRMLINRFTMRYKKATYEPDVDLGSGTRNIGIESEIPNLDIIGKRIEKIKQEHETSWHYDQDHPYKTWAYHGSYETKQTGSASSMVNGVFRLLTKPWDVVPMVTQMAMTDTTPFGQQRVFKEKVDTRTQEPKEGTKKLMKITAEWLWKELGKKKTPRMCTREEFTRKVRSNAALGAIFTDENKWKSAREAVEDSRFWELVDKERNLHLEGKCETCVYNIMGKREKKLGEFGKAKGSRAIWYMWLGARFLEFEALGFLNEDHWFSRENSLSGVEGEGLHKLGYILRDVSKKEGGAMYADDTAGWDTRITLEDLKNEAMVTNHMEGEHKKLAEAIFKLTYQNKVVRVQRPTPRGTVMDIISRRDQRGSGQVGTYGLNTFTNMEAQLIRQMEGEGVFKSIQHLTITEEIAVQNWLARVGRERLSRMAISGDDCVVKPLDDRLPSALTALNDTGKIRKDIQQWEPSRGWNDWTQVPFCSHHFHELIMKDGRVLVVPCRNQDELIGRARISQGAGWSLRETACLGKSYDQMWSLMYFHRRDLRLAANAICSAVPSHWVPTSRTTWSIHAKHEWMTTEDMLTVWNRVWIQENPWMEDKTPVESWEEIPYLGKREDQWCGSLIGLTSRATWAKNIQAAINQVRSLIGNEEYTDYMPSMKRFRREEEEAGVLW

SMILES: COc1ccccc1CCNCc1ccc(OC)c(OCc2ccccc2)c1
- AC50 [1]: > 70 µM (inactive)
- AC50 [2]: 2.11 µM (active)
- IC50 [3]: 9.05 µM (active)
- IC50 [4]: 1.97 µM (active)
- AC50 [5]: > 70 µM (inactive)
- AC50 [6]: 54.1 µM (active)

SMILES: CN(C)c1ccc(/C=C/c2nc(O)c3ccccc3n2)cc1
- EC50 [7]: 4.08 µM (active)
- IC50 [8]: 32.3 µM (not active)
- EC50 [9]: 5.96 µM (active)

SMILES: Cc1ccsc1/C=C1\CCc2ccccc2C1=O
- EC50 (HT-1080): > 50 µM (not active)
- EC50 [10]: 0.518 µM (active)
- EC50 [11]: 2.43 µM (active)
- EC50 [12]: 0.89 µM (active)

SMILES: COc1cc2[nH]c(=S)n(CCCC(=O)N3CCN(c4cccc(Cl)c4)CC3)c(=O)c2cc1OC
- IC50 (Estrogen receptor): 2.36 µM (not active)

SMILES: CC(C)(C)c1ccc(OCC(=O)NNC(=S)NC(=O)c2ccccc2[N+](=O)[O-])c(Br)c1
- IC50 (Genome polyprotein): 56 µM (active)
- IC50 [13]: > 50 µM (active)
- CC50 (Vero): > 40 µM (active)

SMILES: O=C(CNC(=O)/C=C/c1ccco1)N=Nc1c(O)[nH]c2ccccc12
- IC50 (Hexokinase HKDC1): 25.3 µM (inactive)
- IC50 (Bcl-2-like protein 1): 37.1 µM (not active)
- IC50 [14]: 4.97 µM (active)
- EC50 [15]: 5.49 µM (active)
- IC50 [16]: 9.7 µM (active)
- IC50 [17]: 3.25 µM (active)
- IC50 [18]: > 56.8 µM (not active)
- EC50 [19]: 13.1 µM (inconclusive)

SMILES: COc1ccc(CC(=O)Nc2cccc(-c3nnc(-c4cccc(C)c4)o3)c2)cc1OC
- AC50 (INS1): 2.47 µM (active)
- AC50 [20]: 10.5 µM (active)
- AC50 [21]: 47.6 µM (active)
- EC50 [22]: 29.5 µM (inactive)
- IC50 [23]: 2.35 µM (active)
- EC50 [24]: 6.16 µM (active)
- IC50 [25]: 5.21 µM (active)
- EC50 [26]: 15 µM (active)
- AC50 [27]: 8.16 µM (active)
- IC50 [28]: 1.76 µM (active)
- EC50 (H4): 118 µM (active)

SMILES: Cc1ccc(C(=O)c2coc3c2C(=O)C(=O)C(Cl)=C3Cl)cc1
- EC50 (Bcl-2-like protein 10): 6.17 µM (active)
